Experimental data published in article PMC12040169 (PLOS Biology, 2025).

Test: in vitro
Details: human, hela cells, % viability

Compound	viability at 28.5 h, 10 µM	viability at 28.5 h, 10 µM (bulk resorufin, single well)
c1csc(N2CCCN(c3nccn4cnnc34)CC2)n1 [CBK305190]	82.4%	–
CCN1C(=O)CC2(C1=O)C(=O)N(CCCN(C)S(C)(=O)=O)c1ccccc12 (stereo not drawn) [CBK075519]	101%	–
CC(NC(=S)Nc1ccc(S(N)(=O)=O)cc1)c1ccncc1 (stereo not drawn) [CBK267073]	111%	–
O=C(Nc1ccc2c(c1)OCCO2)c1cnc(-c2ccc(Cl)cc2)c(-c2cccnc2)c1 [CBK037528]	110%	–
COc1cc2c(cc1OC)CN(C(=O)Cn1cc(C)c(=O)[nH]c1=O)CC2 [CBK122745]	92.4%	–
O=[N+]([O-])c1cccc(S(=O)(=O)Nc2nnc(C(F)(F)F)s2)c1 [CBK062002]	118%	–
CC(CCc1ccc(F)cc1)NC(=O)c1cc2c([nH]c1=O)CCC2 (stereo not drawn) [CBK281512]	91.9%	–
CC(C)Oc1ccc(C2CC(=O)N(c3cccc(C(=O)O)c3)C2=O)cc1 (stereo not drawn) [CBK291181]	89.8%	–
COc1cc2cc(C(=O)N3CCN(Cc4ccc5c(c4)OCO5)CC3)c(=O)oc2cc1OC [CBK074790]	102%	–
CCNC(=O)O[C@@H]1CO[C@H]2[C@@H]1OC[C@@H]2NC(=O)Nc1ccc(C(C)=O)cc1 [CBK289473]	93.5%	–
O=C(NC(=S)Nc1cccc2c(O)cccc12)c1ccc(-c2ccccc2)cc1 [CBK269022]	85.3%	–
O=C(C1CCOCC1)N1CCCC(c2cc3cccnc3[nH]2)C1 (stereo not drawn) [CBK284941]	109%	–
COc1cc2c(c(OC)c1OC)C1(CCN(Cc3ccc(S(C)(=O)=O)cc3)CC1)NC(=O)C2 [CBK040014]	108%	–
CCCCOc1ccc(Oc2ncc(C(F)(F)F)cc2Cl)cc1 [CBK161629]	94.4%	–
COC(=O)c1ccsc1NS(=O)(=O)c1cc(Cl)sc1Cl [CBK039062]	88.2%	–
Cc1nn(CCNC(=O)C2CC(=O)N(CC(C)C)C2)c(C)c1C (stereo not drawn) [CBK281630]	88%	–
O=C(O)c1ccc(S(=O)(=O)NCc2ccccc2)cc1 [CBK262093]	102%	–
O=C(N[C@H]1CCN2C(=O)c3cc(-c4ccsc4)ccc3NC(=O)[C@H]12)c1cccc(F)c1 [CBK289339]	92.6%	–
CN(CC1(C)COC1)C(=O)C(c1ccc(F)cc1)N(C)C (stereo not drawn) [CBK281722]	107%	–
Cc1nc(Oc2ccccc2)c2c3c(sc2n1)CCCC3 [CBK131919]	101%	–
CN(C)c1ccccc1-c1cc(NCCc2ccccn2)ncn1 [CBK037189]	102%	–
Cc1ccc(-c2ccc(CCC(=O)O)n2CC2CCCO2)cc1 (stereo not drawn) [CBK268636]	101%	–

Compound	viability at 28.5 h, 10 µM	viability at 28.5 h, 10 µM (bulk resorufin, single well)
O=C1CN=C(N2C(=O)C3C4C=CC(C4)C3C2=O)C(=O)N1 (stereo not drawn) [CBK028818]	89.7%	–
CCc1nn(CC(=O)NC2CCC2)c(=O)c2cc3ccsc3n12 [CBK284136]	88.9%	–
Nc1ncc([C@@H]2O[C@H](CO)[C@H](O)C2O)c(=O)[nH]1 (stereo partly drawn) [CBK201205]	78.1%	–
CC(C)N1CCC(CNC(=O)Cn2ccc3ccc(F)cc32)CC1 [CBK282571]	89.9%	–
CN1CCN(C(=O)c2cc(Br)cnc2NCc2cccnc2)CC1 [CBK076347]	87.3%	–
COc1cc(-c2cncc(N[C@@H](C)c3ccccc3)n2)cc(OC)c1OC [CBK065551]	104%	–
Cc1ccccc1CSCC(=O)Nc1c[nH]c(=O)[nH]c1=O [CBK269790]	86.8%	–
COc1ccc(-c2ccc3c(c2)COC2(CCCNC2)O3)c(OC)c1 (stereo not drawn) [CBK105316]	103%	–
COc1ccc2nc(NC(=O)c3ccc(Br)s3)sc2c1 [CBK287316]	92.8%	–
COc1cc(NS(=O)(=O)c2ccc(NC(=O)c3c(C)noc3C)cc2)nc(OC)n1 [CBK268151]	103%	–
O=C(NC1CC1)[C@@H]1C=CCN1C(=O)Nc1ccccc1C(F)(F)F [CBK284276]	98.1%	–
COc1ccc(CCC(=O)N2CCCCC2c2ncc(-c3cccc(F)c3)[nH]2)cc1OC (stereo not drawn) [CBK291148]	90.3%	–
CCOC(=O)C(CNC(=O)CNC(=O)c1ccoc1)Cc1ccccc1 (stereo not drawn) [CBK305971]	92.4%	–
COc1ccc(C(=O)NC(=S)Nc2ccccc2N2CCN(C)CC2)cc1[N+](=O)[O-] [CBK268292C]	87%	–
Cn1nc(-c2ccc(F)cc2)cc1[C@H]1CN2CC[C@H]1C[C@@H]2CNC(=O)N1CCOCC1 [CBK289108]	116%	–
Cc1nc2ccccn2c1-c1csc(N)n1 [CBK288628B]	91.7%	–
Cc1c(C(C)N)cnn1-c1ccc(C#N)cc1 (stereo not drawn) [CBK305869]	80.9%	–
Cc1ncccc1C(=O)NC(c1ccc(F)c(F)c1)c1nccn1C (stereo not drawn) [CBK283809]	90.8%	–
CCCn1cnc2cc(NC(=O)Cn3cccc(C(=O)NC4CCCCC4)c3=O)ccc21 [CBK286075]	93%	–
Cc1cc(Cl)c(OCCN2CCC(C)CC2)c(Br)c1 [CBK265088G]	78.3%	–
NNc1ccc(/C=C/c2ccc(NN)cc2S(=O)(=O)O)c(S(=O)(=O)O)c1 [CBK278163N]	91.1%	–
CC(C)(C)c1cc(C(=O)O)[nH]n1 [CBK260874]	103%	–

Compound	viability at 28.5 h, 10 µM	viability at 28.5 h, 10 µM (bulk resorufin, single well)
COc1ccc(C(=O)CC(SCC(NC(C)=O)C(=O)O)c2ccc(Cl)cc2)cc1OC (stereo not drawn) [CBK296109]	88.4%	–
O=C(Cn1cc(C(=O)NC2CCCC2)ccc1=O)NCC1(c2ccccc2)CCCC1 [CBK286248]	94.7%	–
CCN(CC)C(=O)c1c(NC(=O)c2cccs2)sc2c1CCC2 [CBK307096]	93%	–
Cn1cccc1C(=O)Nc1cc2ccccc2c(N2CCNCC2)n1 [CBK036347T]	95.5%	–
Nc1cccc(-c2nc(-c3cncnc3)cnc2N)c1 [CBK063907]	102%	–
COc1ccc2c(c1)COC1(CCN(C(=O)NC(=O)c3ccccc3)CC1)O2 [CBK060804]	–	95.7%
COc1cc(C2C3=C(CC(C)(C)CC3=O)Nc3ncnn32)cc(OC)c1OC (stereo not drawn) [CBK265646]	86.2%	–
NC(=O)CSc1nnc(NC(=O)c2ccccc2)s1 [CBK287628]	92.8%	–
COc1ccc(/C=N/NC(=O)CCc2c(C)n[nH]c2C)cc1O [CBK262894]	93.6%	–
O=C(NCC1COc2ccccc2O1)c1ccc(-c2ccccc2)nc1NCCc1ccccn1 (stereo not drawn) [CBK076554]	95.9%	–
Oc1cc2cccnc2nc1-c1cccc(C(F)(F)F)c1 [CBK073704]	79%	–
O=C(O)CCc1cccnc1 [CBK175283]	92.2%	–
COc1ccc(CCCC(=O)n2c(=O)n(CCc3c[nH]c4ccccc34)c3ccccc32)cc1 [CBK106514]	91.3%	–
CC(=O)Nc1cccc(-n2cnnc2SCC2CCCCC2)c1 [CBK305054]	96.2%	–
Cc1nc(C2CCCCN2C(=O)C2CCCCC2)ncc1C(=O)NCc1ccc(F)cc1 (stereo not drawn) [CBK285554]	86.5%	–
CN1C(=O)CC2(C1=O)C(=O)N(Cc1ccc3ccccc3n1)c1ccc(Cl)cc12 (stereo not drawn) [CBK075494]	102%	–
COc1ccc(C(=O)N2CCC3(CCCN(C(=O)c4c(F)cccc4F)C3)C2)cc1OC (stereo not drawn) [CBK131669]	94.1%	–
CN1C(=O)c2cccc3c(S(=O)(=O)Nc4ccc(C(=O)O)c(O)c4)ccc1c23 [CBK299799]	109%	–
COC(=O)c1ccccc1NC(=O)CNC(=O)c1ccccc1Cl [CBK269113]	88.8%	–
Cc1ccc(CNC(=O)OCCN2CCN(C)CC2)n1C [CBK200287]	86.8%	–
CCn1c2ccccc2c2cc(C#N)c(=O)[nH]c21 [CBK013595]	93.9%	–
CN(CC(=O)Nc1ccc([N+](=O)[O-])cc1)S(=O)(=O)c1ccc2ccccc2c1 [CBK267422]	92.7%	–

Compound	viability at 28.5 h, 10 µM	viability at 28.5 h, 10 µM (bulk resorufin, single well)
CN(Cc1nncn1C)C(=O)c1cnc2c(c1)c(C(C)(C)C)nn2C [CBK304154]	85.4%	–
Cn1cc(-c2nc(C3CCCCCN3C(=O)c3cccnc3)no2)cn1 (stereo not drawn) [CBK305387]	87.9%	–
Cc1ccc(C(=O)Cn2c3ccccc3n3ncnc23)cc1 [CBK263081]	99.6%	–
COC(=O)c1cc(CN2CCCN(S(=O)(=O)c3ccc(C(F)(F)F)cc3Cl)CC2)cn1C [CBK063097]	99.4%	–
Cn1c(SCCC(=O)O)nnc1-c1cccnc1 [CBK269077]	108%	–
Cc1csc(C(Cc2ccsc2)NC(=O)c2c(C)noc2C)n1 (stereo not drawn) [CBK285045]	102%	–
Cc1cc(O)ccc1Nc1cc(-c2ccc3c(c2)OCO3)ncn1 [CBK091053]	92.6%	–
C=Cn1ncc(CN2CCc3[nH]c4ccc(OCC)cc4c3C2)c1C [CBK282574]	89.7%	–
COc1cc2c(cc1NC(=O)C(C)Oc1ccccc1)oc1ccccc12 (stereo not drawn) [CBK264061]	91.3%	–
Cc1cccn2c(=O)cc(CN3CCC(c4cnn(C)c4)CC3)nc12 [CBK305806]	101%	–
N#CCCn1cc(C(N)=O)c(-c2cc3ccccc3o2)n1 [CBK306204]	92.9%	–
Cc1n[nH]c(C)c1CCC(=O)N/N=C\c1ccc(Cl)c(Cl)c1 [CBK263395]	97.4%	–
COc1ccc(C(C)(C)C)cc1NC(=O)c1ccncc1 [CBK288248]	92%	–
COc1ccc(C(=O)N[C@H]2C[C@H]3C(=O)Nc4ccccc4C(=O)N3C2)cc1 [CBK289355]	84.7%	–
O=C(O)C(Nc1nc(C(F)(F)F)nc2ccccc12)c1ccccc1 (stereo not drawn) [CBK269570]	106%	–
CCN(CC)C(=O)C1CCCN(C(=O)c2ccc3c(c2)COC(C2CCN(C(=O)OC(C)(C)C)CC2)O3)C1 (stereo not drawn) [CBK173279]	100%	–
Fc1ccc(NC(=S)NNC(=S)Nc2cccc3ccccc23)c(F)c1 [CBK266982]	89.8%	–
O=S(=O)(c1ccc(-c2ccc(S(=O)(=O)N3CCCCC3)cc2)cc1)N1CCCCC1 [CBK261257]	92.2%	–
COc1ccc2cc(COC(=O)c3cnc(C)cn3)c(Cl)nc2c1 [CBK295288]	106%	–
Cc1cc(S(=O)(=O)Nc2cc(C3CC3)nn2C)c(C)cc1Cl [CBK043994]	111%	–
CC(=O)Nc1cccc(Oc2cnc(-c3ccc(OC(F)(F)F)cc3)c(N)n2)c1 [CBK145119]	91.9%	–
